In patent publication US20080132549A1, “Sulphur-Linked Imidazone Compounds for the Treatment of Hiv/Aids” (Pfizer Inc., priority 2004, published 2008):

Legend:
[1] = biological target: T1, purified recombinant HIV-1 reverse transcriptase (Human immunodeficiency virus type 1 group M subtype B, UniProt P04585); assay: Inhibition of HIV-1 reverse transcriptase enzyme ([3H]-Flashplate enzyme assay, 384-well); assay type: biochemical; conditions: recombinant HIV-1 RT expressed in Escherichia Coli; 5% final DMSO
T1 construct: purified recombinant HIV-1 reverse transcriptase (RT, EC, 2.7.7.49); made in house; host or cells: Escherichia coli
Description: The activity of the compounds of the invention as reverse transcriptase inhibitors may be measured using the following assay.
Inhibition of HIV-1 Reverse Transcriptase Enzyme
The reverse transcriptase activity of the compounds of the invention may be assayed as follows. Using the purified recombinant HIV-1 reverse transcriptase (RT, EC, 2.7.7.49) obtained by expression in Escherichia Coli, a 384-well plate assay system was established for assaying a large number of samples using the [3H]-Flashplate enzyme assay system (NEN-SMP 410A) following the manufacturer's recommendations. The compounds were dissolved in 100% DMSO and diluted with the appropriate buffer to a 5% final DMSO concentration. The inhibitory activity was expressed in percent inhibition relative to the DMSO control.

Q: With `CCc1nc(CN)n(CC)c1Sc1cc(C#N)cc(C#N)c1` as the molecule, how does the melting point read?
A: 133 to 135 °C

Q: For `Cc1nc(C2CC2)c(Sc2cc(C#N)cc(C#N)c2)n1Cc1ccncc1` [Example 40], which IC50 [1] is on record?
A: 135 nM

Q: For `CCc1nc(CCOC)n(CC)c1Sc1cc(C#N)cc(C#N)c1` [Example 23, 5-[3,5-Diethyl-2-(2-methoxy-ethyl)-3H-imidazol-4-ylsulfanyl]-isophthalonitrile], which IC50 [1] is on record?
A: 147 nM

Q: With `CCn1c(CCO)nc(C2CC2)c1Sc1cc(C#N)cc(C#N)c1` as the molecule, how does the melting point read?
A: 122 to 124 °C

Q: With `CCc1nc(CCO)n(CC)c1Sc1cc(C#N)cc(C#N)c1` [Example 1, 5-[3,5-Diethyl-2-(2-hydroxyethyl)-3H-imidazol-4-ylsulfanyl]-isophthalonitrile] as the molecule, how does the IC50 [1] read?
A: 38 nM

Q: For `CCc1nc(CCOC(N)=O)n(C)c1Sc1cc(C#N)cc(C#N)c1` [Example 4, Carbamic acid 2-[5-(3,5-dicyano-phenylsulfanyl)-4-ethyl-1-methyl-1H-imidazol-2-yl]-ethyl ester], which IC50 [1] is on record?
A: 926 nM

Q: With `Cn1c(COC(N)=O)nc(C2CC2)c1Sc1cc(C#N)cc(C#N)c1` [Example 14, Carbamic acid 4-cyclopropyl-5-(3,5-dicyano-phenylsulfanyl)-1-methyl-1H-imidazol-2-ylmethyl ester] as the molecule, how does the IC50 [1] read?
A: 353 nM

Q: Which melting point does the source give for `CCn1c(COC(N)=O)nc(C2CC2)c1Sc1cc(C#N)cc(C#N)c1` here?
A: 170 to 172 °C

Q: With `CCn1c(CO)nc(C(C)C)c1Sc1cc(C#N)cc(C#N)c1` as the molecule, how does the melting point read?
A: 167 to 169 °C

Q: For `Cc1nc(C(F)(F)F)c(Sc2cc(C#N)cc(C#N)c2)n1C` [Example 38], which IC50 [1] is on record?
A: 1070 nM

Q: Which melting point does the source give for `CCc1nc(CO)n(CC)c1Sc1cc(C#N)cc(C#N)c1` here?
A: 141 to 143 °C

Q: Which melting point does the source give for `CCn1c(CO)nc(C(F)(F)F)c1Sc1cc(C#N)cc(C#N)c1` [Example 9] here?
A: 184 to 186 °C

Q: And the IC50 [1]?
A: 1160 nM

Q: Which melting point does the source give for `CCn1c(COC)nc(C(C)C)c1Sc1cc(C#N)cc(C#N)c1` here?
A: 156 to 158 °C

Q: With `CCn1c(COC(N)=O)nc(C(C)C)c1Sc1cc(C#N)cc(C#N)c1` as the molecule, how does the melting point read?
A: 174 to 175 °C
